Results reported in the supplement of paper PMC10307832.

Experiments:
Experiment in all cases: relative viability (nuclei count vs DMSO), 5 days (fraction); higher = more cells survive
[1] = compound: COc1cc2nc(N3CCCN(C)CC3)nc(NC3CCN(Cc4ccccc4)CC3)c2cc1OC + NC(=O)Nc1cc(-c2cccc(F)c2)sc1C(=O)N[C@H]1CCCNC1 [AZD7762] (partner 0.2 µM)
Procedure, shortened: (§1)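 For relative viability, nuclei counts in treated wells were divided by those in vehicle wells. Lung cancer cell lines had been pin-tool dosed in 1536-well plates the day after seeding and cultured for 5 days, then fixed and stained in one step (final 0.05% Triton X-100, 1% formaldehyde, 1 ug/ml Hoechst) and imaged at 4×. Doses were one drug alone or a fixed anchor-drug dose plus five library-drug doses (not always all listed) in √10 steps, and values are duplicate-plate medians.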

[2] = compound: Cc1cc([C@@H](C)Nc2ccccc2C(=O)O)c2nc(N3CCOCC3)cc(=O)n2c1 [AZD6482] + Cc1nc(NC(=O)N2CCC[C@H]2C(N)=O)sc1-c1ccnc(C(C)(C)C(F)(F)F)c1 [Alpelisib] (partner 2 µM)
Procedure, shortened: as §1

[3] = compound: COc1cc2nc(N3CCCN(C)CC3)nc(NC3CCN(Cc4ccccc4)CC3)c2cc1OC + Cc1cc(Nc2cc(N3CCN(C)CC3)nc(Sc3ccc(NC(=O)C4CC4)cc3)n2)n[nH]1 [Tozasertib] (partner 0.1 µM)
Procedure, shortened: as §1

[4] = compound: COc1cc2nc(N3CCCN(C)CC3)nc(NC3CCN(Cc4ccccc4)CC3)c2cc1OC + COc1cccc2cc(-c3nc([C@H]4CC[C@H](C(=O)O)CC4)n4ncnc(N)c34)[nH]c12 [OSI-027] (partner 0.5 µM)
Procedure, shortened: as §1

Row | Cell Line | relative viability ([1]; first compound 0.2 µM) | relative viability ([1]; first compound 0.6325 µM) | relative viability ([1]; first compound 2 µM) | relative viability ([1]; first compound 6.325 µM) | relative viability ([2]; first compound 0.08 µM) | relative viability ([2]; first compound 0.253 µM) | relative viability ([2]; first compound 0.8 µM) | relative viability ([2]; first compound 2.53 µM) | relative viability ([2]; first compound 8 µM) | relative viability ([3]; first compound 0.2 µM) | relative viability ([3]; first compound 0.6325 µM) | relative viability ([3]; first compound 2 µM) | relative viability ([3]; first compound 6.325 µM) | relative viability ([4]; first compound 0.2 µM) | relative viability ([4]; first compound 0.6325 µM) | relative viability ([4]; first compound 2 µM) | relative viability ([4]; first compound 6.325 µM)
1 | LCLC-103H | 0.814 | 0.719 | 0.903 | 0.832 | 0.877 | 0.747 | 0.701 | 0.605 | 0.553 | 0.396 | 0.494 | 0.462 | 0.453 | 0.454 | 0.564 | 0.537 | 0.449
2 | EKVX | 0.795 | 0.713 | 0.815 | 0.657 | 0.516 | 0.46 | 0.591 | 0.336 | 0.581 | 0.41 | 0.34 | 0.476 | 0.542 | 0.755 | 0.662 | 0.736 | 0.666
3 | LXF-289 | 1.04 | 1.05 | 1.12 | 1.11 | 0.946 | 1.01 | 0.966 | 0.798 | 0.706 | 0.184 | 0.195 | 0.205 | 0.211 | 0.696 | 0.761 | 0.791 | 0.768
4 | ABC-1 | 0.753 | 0.772 | 0.79 | 0.91 | 0.741 | 0.819 | 1.05 | 0.702 | 0.826 | 0.197 | 0.211 | 0.201 | 0.297 | 0.479 | 0.583 | 0.444 | 0.336
5 | NCI-H650 | 0.95 | 0.93 | 1.02 | 0.67 | 1.11 | – | 0.997 | 0.656 | 0.778 | 0.773 | 0.714 | 0.793 | 0.709 | 0.532 | 0.483 | 0.508 | 0.329
6 | NCI-H2085 | 0.992 | 0.992 | 1.09 | 0.947 | 0.426 | 0.409 | 0.351 | 0.34 | 0.409 | 0.884 | 0.895 | 0.971 | 0.612 | 0.742 | 0.788 | 0.72 | 0.584
7 | NCI-H1793 | 0.43 | 0.617 | 0.357 | 0.432 | 0.537 | 0.519 | 0.48 | – | 0.406 | 0.338 | 0.386 | 0.359 | 0.322 | 0.241 | 0.365 | 0.225 | 0.293
8 | LC-2-ad | 0.827 | 0.908 | 0.941 | 0.91 | 0.704 | 0.597 | 0.668 | 0.467 | 0.507 | 0.493 | 0.436 | 0.551 | 0.47 | 0.849 | 0.841 | 0.83 | 0.761
9 | NCI-H1355 | 0.738 | 0.693 | 0.941 | 0.661 | 0.523 | 0.621 | 0.6 | 0.452 | 0.592 | 0.565 | 0.539 | 0.582 | 0.546 | 0.393 | 0.456 | 0.467 | 0.401
10 | H3255 | 0.911 | 0.86 | 0.972 | 0.795 | 0.531 | 0.54 | 0.614 | 0.335 | 0.496 | 0.604 | 0.851 | 0.641 | 0.742 | 0.513 | 0.534 | 0.587 | 0.692
11 | NCI-H1993 | 0.73 | 0.844 | 0.816 | 0.826 | 0.701 | 0.653 | – | – | 0.767 | 0.583 | 0.622 | 0.604 | 0.625 | 0.534 | 0.57 | 0.529 | 0.553
12 | NCI-H1734 | 0.551 | 0.505 | 0.502 | 0.724 | 0.416 | 0.444 | 0.431 | 0.338 | 0.521 | 0.277 | 0.249 | 0.26 | 0.217 | 0.587 | 0.583 | 0.506 | 0.501
13 | HOP-62 | 0.485 | 0.425 | 0.726 | 0.521 | 1 | 0.959 | 1.19 | 0.531 | 0.903 | 0.406 | 0.371 | 0.401 | 0.441 | 0.812 | 0.845 | 0.826 | 0.819
14 | LOU-NH91 | 0.727 | 0.85 | 0.759 | 0.793 | 0.547 | 0.676 | 0.647 | 0.525 | 0.639 | 0.67 | 0.703 | 0.649 | 0.769 | 0.75 | 0.761 | 0.625 | 0.74
15 | PC-14 | 0.343 | 0.382 | 0.357 | 0.257 | 0.857 | 0.882 | 0.832 | 0.663 | 0.807 | 0.587 | 0.61 | 0.64 | 0.505 | 0.758 | 0.734 | 0.733 | 0.0418
16 | NCI-H1437 | 1.15 | 1.17 | 1.17 | 1.17 | 0.819 | 0.842 | 0.809 | 0.641 | 0.741 | 0.442 | 0.433 | 0.469 | 0.461 | 0.901 | 0.876 | 0.85 | 0.918
17 | NCI-H460 | 0.746 | 0.604 | 0.562 | 0.636 | 0.206 | 0.352 | 0.263 | 0.13 | 0.18 | 0.535 | 0.399 | 0.361 | 0.625 | 0.669 | 0.674 | 0.565 | 0.63

Row | Cell Line | relative viability ([1]; first compound 0.2 µM) | relative viability ([1]; first compound 0.6325 µM) | relative viability ([1]; first compound 2 µM) | relative viability ([1]; first compound 6.325 µM) | relative viability ([2]; first compound 0.08 µM) | relative viability ([2]; first compound 0.253 µM) | relative viability ([2]; first compound 0.8 µM) | relative viability ([2]; first compound 2.53 µM) | relative viability ([2]; first compound 8 µM) | relative viability ([3]; first compound 0.2 µM) | relative viability ([3]; first compound 0.6325 µM) | relative viability ([3]; first compound 2 µM) | relative viability ([3]; first compound 6.325 µM) | relative viability ([4]; first compound 0.2 µM) | relative viability ([4]; first compound 0.6325 µM) | relative viability ([4]; first compound 2 µM) | relative viability ([4]; first compound 6.325 µM)
18 | NCI-H1666 | 0.901 | 0.809 | 0.76 | 0.746 | 0.609 | 0.748 | 0.751 | 0.64 | 0.738 | 0.569 | 0.727 | 0.635 | 0.625 | 0.816 | 0.877 | 0.757 | 0.859
19 | NCI-H1651 | 0.446 | 0.373 | 0.452 | 0.502 | 0.791 | 0.778 | 0.712 | 0.42 | 0.777 | 0.846 | 0.75 | 1.01 | 0.668 | 0.706 | 0.686 | 0.729 | 0.714
20 | NCI-H1755 | 0.501 | 0.386 | 0.461 | 0.477 | 0.695 | 0.719 | 0.547 | 0.336 | 0.435 | 0.668 | 0.464 | 0.592 | 0.557 | 0.791 | 0.663 | 0.671 | 0.518
21 | HARA | 0.306 | 0.337 | 0.453 | 0.266 | 0.459 | 0.762 | 0.849 | – | 0.708 | 0.123 | 0.125 | 0.0997 | 0.236 | 0.535 | 0.483 | 0.454 | 0.398
22 | NCI-H596 | 1.16 | 1.03 | 1.23 | 1.06 | 0.449 | 0.437 | 0.445 | 0.44 | 0.388 | 0.961 | 1.1 | 0.91 | 0.893 | 0.771 | 0.786 | 0.866 | 0.667
23 | NCI-H23 | 0.198 | 0.322 | 0.262 | 0.174 | 0.642 | 0.534 | 0.713 | 0.374 | 0.597 | 0.423 | 0.385 | 0.481 | 0.337 | 0.637 | 0.578 | 0.707 | 0.503
24 | LCLC-97TM1 | 0.335 | 0.269 | 0.297 | 0.277 | 0.274 | 0.19 | 0.238 | 0.187 | 0.204 | 0.185 | 0.423 | 0.311 | 0.256 | 0.569 | 0.621 | 0.674 | 0.537
25 | EPLC-272H | 0.209 | 0.209 | 0.184 | 0.258 | 0.593 | – | 0.554 | 0.436 | 0.577 | 0.247 | 0.269 | 0.344 | 0.29 | 0.358 | 0.32 | 0.316 | 0.205
26 | NCI-H1915 | 0.698 | 0.586 | 0.72 | 0.764 | 1.04 | 1.02 | 1.1 | 0.958 | 1.05 | 0.441 | 0.465 | 0.464 | 0.426 | 0.584 | 0.619 | 0.684 | 0.637
27 | NCI-H2405 | 0.671 | 0.792 | 0.829 | 0.973 | 0.354 | – | 0.603 | 0.384 | 0.556 | 0.711 | 0.696 | 0.83 | 0.74 | 0.717 | 0.677 | 0.671 | 0.66
28 | NCI-H322M | 0.48 | 0.665 | 0.444 | 0.549 | 0.574 | 0.553 | 0.573 | 0.474 | 0.48 | 0.481 | 0.451 | 0.417 | 0.437 | 0.546 | 0.504 | 0.595 | 0.423
29 | NCI-H2170 | 0.936 | 0.809 | 0.892 | 0.833 | 0.662 | 0.666 | 0.713 | 0.56 | 0.681 | 0.696 | 0.703 | 0.788 | 0.752 | 0.802 | 0.711 | 0.695 | 0.682
30 | NCI-H1395 | 0.413 | 0.446 | 0.37 | 0.335 | 0.696 | 0.573 | 0.732 | 0.5 | 0.587 | 0.784 | 0.705 | 0.835 | 0.81 | 0.715 | 0.731 | 0.677 | 0.419
31 | NCI-H358 | 0.518 | 0.681 | 0.48 | 0.498 | 0.657 | 0.978 | 0.705 | 0.39 | 0.833 | 0.108 | 0.111 | 0.123 | 0.126 | 0.734 | 0.831 | 0.845 | 0.626
32 | NCI-H838 | 0.974 | 0.908 | 1.01 | 0.892 | 0.8 | 0.98 | 0.881 | 0.679 | 0.771 | 0.28 | 0.27 | 0.286 | 0.246 | 0.433 | 0.429 | 0.362 | 0.375
33 | CAL-12T | 0.725 | 0.615 | 0.614 | 0.595 | 0.902 | 0.661 | 0.901 | 0.535 | 0.721 | 0.363 | 0.381 | 0.365 | 0.323 | 0.516 | 0.718 | 0.76 | 0.479
